The source of these data is US6914064B2, “1,4-Disubstituted piperazine derivatives useful as uro-selective α1-adrenoceptor blockers” (Ranbaxy Laboratories Limited, priority 2000, dated 2005).

For data set [1], the target named is T1, α1B adrenoceptor (spleen) (Rattus norvegicus, UniProt P15823).
T1 construct: Isolated tissues were mounted in organ bath containing Krebs Henseleit buffer; from tissue; host or cells: isolated spleen of male wistar rats
T1 sequence (P15823 1-515): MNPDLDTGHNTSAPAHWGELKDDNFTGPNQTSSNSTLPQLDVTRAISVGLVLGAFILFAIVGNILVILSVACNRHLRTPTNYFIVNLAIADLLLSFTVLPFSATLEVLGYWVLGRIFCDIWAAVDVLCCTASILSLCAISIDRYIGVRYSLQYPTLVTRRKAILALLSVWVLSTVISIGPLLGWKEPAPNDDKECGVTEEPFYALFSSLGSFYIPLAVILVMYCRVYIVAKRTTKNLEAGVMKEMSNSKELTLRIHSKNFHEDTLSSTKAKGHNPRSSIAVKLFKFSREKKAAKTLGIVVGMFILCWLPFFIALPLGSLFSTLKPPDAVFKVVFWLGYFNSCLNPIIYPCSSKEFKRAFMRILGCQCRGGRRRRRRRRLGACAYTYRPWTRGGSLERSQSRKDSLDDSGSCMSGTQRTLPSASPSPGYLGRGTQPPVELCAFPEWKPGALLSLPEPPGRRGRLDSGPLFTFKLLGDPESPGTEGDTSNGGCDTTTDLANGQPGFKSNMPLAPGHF
Nature of the data set: In vitro functional study, antagonism of phenylepinephrine-induced contraction of spleen. Type of data set: biochemical. The following applies: tested compound at 0.1, 1 and 10 mM, read-out: α Adrenoceptor Subtype (pKB) α1B (converted). The text has this:
(§1) In order to study selectivity of action of these compounds towards different α-adrenoceptor subtypes, the ability of these compounds to antagonise α1-adrenoceptor agonist induced contractile response on aorta (α1Dprostate (α1A and spleen (α1B was studied. Aorta and spleen tissues were isolated from urethane anaesthetised (1.5 gm/kg) male wistar rats. Isolated tissues were mounted in organ bath containing Krebs Henseleit buffer of following composition (mM): NaCl 118; KCl 4.7; CaCl2 2.5; MgSO4. 7H2O 1.2; NaHCO3 25; KH2PO41.2; glucose 11.5. Buffer was maintained at 37° C. and aereated with a mixture of 95% O2 and 5% CO2. A resting tension of 2 g (aorta) or 1 g (spleen and prostate)was applied to tissues. Contractile response was monitored using a force displacement transducer and recorded on chart recorders. Tissues were allowed to equilibrate for 2 hours. At the end of equilibration period, concentration response curves to norepinephrine (aorta) and phenylepinephrine (spleen and prostate) were obtained in absence and presence of tested compound (at concentration of 0.1,1 and 10 mM). Antagonist affinity was calculated and expressed as pKB vales in Table II.

The target of the next data set is T2, α1D adrenoceptor (aorta) (Rattus norvegicus, UniProt P23944).
T2 construct: Isolated tissues were mounted in organ bath containing Krebs Henseleit buffer; from tissue; host or cells: isolated aorta of male wistar rats
T2 sequence (P23944 1-561): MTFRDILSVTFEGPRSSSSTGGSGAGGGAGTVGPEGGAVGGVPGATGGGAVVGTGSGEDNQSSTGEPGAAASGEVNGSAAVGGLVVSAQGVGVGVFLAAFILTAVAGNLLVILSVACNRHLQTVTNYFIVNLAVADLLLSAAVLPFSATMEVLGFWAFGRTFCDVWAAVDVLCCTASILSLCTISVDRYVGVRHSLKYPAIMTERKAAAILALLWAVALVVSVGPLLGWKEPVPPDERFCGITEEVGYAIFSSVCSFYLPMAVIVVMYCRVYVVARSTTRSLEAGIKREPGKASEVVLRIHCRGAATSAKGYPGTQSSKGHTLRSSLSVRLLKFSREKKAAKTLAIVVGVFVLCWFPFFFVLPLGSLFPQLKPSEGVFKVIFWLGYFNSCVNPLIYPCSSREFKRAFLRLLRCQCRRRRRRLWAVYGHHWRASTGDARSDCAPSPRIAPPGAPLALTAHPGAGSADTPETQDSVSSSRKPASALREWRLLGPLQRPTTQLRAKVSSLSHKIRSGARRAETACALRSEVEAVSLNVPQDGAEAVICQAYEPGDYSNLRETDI
Nature of the data set: In vitro functional study, antagonism of norepinephrine-induced contraction of aorta. Type of data set: biochemical. The conditions noted are these: tested compound at 0.1, 1 and 10 mM, read-out: α Adrenoceptor Subtype (pKB) α1D (converted).
Text: as §1

For another data set, the target named is T3, α1A adrenoceptor (Rattus norvegicus, UniProt P43140).
T3 construct: from tissue; host or cells: rat submaxillary gland membranes
T3 sequence (P43140 1-466): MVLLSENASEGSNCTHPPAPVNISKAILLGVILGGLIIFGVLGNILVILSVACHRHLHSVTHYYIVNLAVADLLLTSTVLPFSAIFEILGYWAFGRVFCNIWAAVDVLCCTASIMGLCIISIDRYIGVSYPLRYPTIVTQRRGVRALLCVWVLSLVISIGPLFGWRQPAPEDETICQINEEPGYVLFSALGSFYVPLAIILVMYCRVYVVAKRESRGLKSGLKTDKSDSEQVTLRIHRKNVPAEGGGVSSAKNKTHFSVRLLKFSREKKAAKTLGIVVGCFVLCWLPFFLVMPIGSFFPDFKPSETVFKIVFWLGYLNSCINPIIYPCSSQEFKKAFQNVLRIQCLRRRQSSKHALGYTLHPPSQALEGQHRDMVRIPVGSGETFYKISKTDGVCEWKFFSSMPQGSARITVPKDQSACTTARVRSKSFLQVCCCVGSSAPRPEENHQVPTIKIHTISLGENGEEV
The data set is described as follows: Receptor binding assay, displacement of [3H]prazosin, rat submaxillary membranes. The following applies: for Ki: [3H]prazosin displacement, rat submaxillary membranes, read-out: α1A (Rat submaxillary) Ki; for Selectivity α1B/α1A: ratio of Ki α1B (rat liver) / α1A (rat submaxillary). The protocol: Receptor binding assays were performed using native α-adrenoceptors.
(§2) Submaxillary glands were isolated immediately after sacrifice. The liver was perfused with buffer (Tris HCl 50 mM, NaCl 100 mM, 10 mM EDTA pH 7.4). The tissues were homogenised in 10 volumes of buffer (Tris HCl 50 mM, NaCl 100 mM, EDTA 10 mM, pH 7.4). The homogenate was filtered through two layers of wet gauze and filtrate was centrifuged at 500 g for 10 min. The supernatant was subsequently centrifuged at 40,000 g for 45 min. The pellet thus obtained was resuspended in the same volume of assay buffer (Tris HCl 50 mM, EDTA 5 mM, pH 7.4) and were stored at −70° C. until the time of assay.
(§3) The membrane homogenates (150-250 μg protein) were incubated in 250 μl of assay buffer (Tris HCl 50 mM, EDTA 5 mM, pH 7.4) at 24-25° C. for 1 h. Non-specific binding was determined in the presence of 300 nM prazosin. The incubation was terminated by vacuum filtration over GF/B fibre filters. The filters were then washed with ice cold 50 mM Tris HCl buffer (pH 7.4). The filtermats were dried and bound radioactivity retained on filters was counted.The IC50 & Kd were estimated by using the non-linear curve fitting program using G Pad Prism software.
(Loss of bound radioactivity is the signal in a displacement assay; it reports binding, not function.)

Another data set addresses T4, α1B adrenoceptor (Rattus norvegicus, UniProt P15823).
T4 construct: from tissue; host or cells: rat liver membranes
T4 sequence (P15823 1-515): T1 sequence (P15823 1-515)
The data set is described as follows: Receptor binding assay, displacement of [3H]prazosin, rat liver membranes. The following applies: [3H]prazosin displacement, rat liver membranes; read-out: α1B (Rat liver) Ki. The protocol:
Receptor binding assays were performed using native α-adrenoceptors. The affinity of different compounds for α1A and α1B adrenoceptor subtypes was evaluated by studying their ability to displace specific [^3H]prazosin binding from the membranes of rat submaxillary and liver respectively (Michel et al, Br J Pharmacol, 98, 883-889 (1989)). The binding assays were performed according to U'Prichard et al. (Eur J Pharmacol, 50:87-89 (1978)) with minor modifications.
as §2
as §3, with “software. The value of inhibition constant Ki was calculated from competitive binding studies by using Cheng & Prusoff equation (Cheng & Prusoff, Biochem Pharmacol, 1973,22: 3099-3108), Ki=IC50/(1+L/Kd) where L is the concentration of [^3H]prazosin used in the particular experiment (Table I).” for “software.”

Data set [2] deals with T5, α1A adrenoceptor (prostate) (Rattus norvegicus, UniProt P43140).
T5 construct: from tissue; host or cells: isolated prostate tissue
T5 sequence (P43140 1-466): T3 sequence (P43140 1-466)
The data set is described as follows: In vitro functional study, antagonism of phenylepinephrine-induced contraction of prostate. Type of data set: biochemical. The conditions noted are these: for Selectivity α1A/α1B / Selectivity α1A/α1D: functional assays, from pKB values; for Kb: prostate, phenylepinephrine, tested compound at 0.1, 1 and 10 mM, read-out: α Adrenoceptor Subtype (pKB) α1A (converted).
Text: as §1

SMILES strings stand for the structures.

The Ki is the equilibrium dissociation constant of an inhibitor or competing ligand from its target. One may read the melting point as the temperature, or range, at which the solid turns liquid.

In the case of `Cl.O=C1C2CC=CCC2C(=O)N1CCCN1CCN(c2ccccc2)CC1` (centres unmarked) [Compound 13, 2-[3-{4-(Phenyl)piperazin-1-yl}propyl]-3a,4,7,7a-tetrahydro-1H-isoindole-1,3(2H)-dione hydrochloride], the melting point lay in the range of 231 to 232 °C. Also, in data set [1], the Kb is 813 nM. Also, the Kb at α1D adrenoceptor (aorta) was 51.3 nM. Moreover, on α1A adrenoceptor, the Ki turned out to be 6.3 nM and the “Selectivity α1B/α1A” value was 61. The Ki on α1B adrenoceptor came out at 384 nM. In data set [2], the “Selectivity α1A/α1B” value is on record as 89, the “Selectivity α1A/α1D” value was 5.6 and the Kb is 9.12 nM.

As to `CCc1ccccc1N1CCN(CCCN2C(=O)C3CC=CCC3C2=O)CC1.Cl` (centres unmarked) [Compound 09, 2-[3-{4-(2-Ethylphenyl)piperazin-1-yl}propyl]-3a,4,7,7a-tetrahydro-1H-isoindole-1,3(2H)-dione hydrochloride], the melting point was in the range of 232.5 to 233.5 °C. In data set [1], the Kb was 15.8 nM. For the same compound, the Kb on α1D adrenoceptor (aorta) is 2.51 nM. Besides, on α1A adrenoceptor, the inhibition constant (Ki) worked out at 0.3 nM and the “Selectivity α1B/α1A” value is reported as 207. For the same compound, on α1B adrenoceptor, the Ki came out at 62 nM. For the same compound, in data set [2], the “Selectivity α1A/α1B” value stood at 23, the “Selectivity α1A/α1D” value is reported as 3.6 and the Kb was 0.676 nM.

As to `COc1ccccc1N1CCN(C(C)CCN2C(=O)C3CC=CCC3C2=O)CC1.Cl` (centres unmarked) [Compound 29, 2-[3-{4-(2-Methoxyphenyl)piperazin-1-yl}-3-methylpropyl]-3a,4,7,7a-tetrahydro-1H-isoindole-1,3(2H)-dione hydrochloride], the melting point fell in the range of 219 to 220 °C. Besides, the Kb in data set [1] is 1580 nM. Besides, the Kb at α1D adrenoceptor (aorta) is 33.9 nM. For the same compound, at α1A adrenoceptor, the Ki amounted to 3.45 nM and the “Selectivity α1B/α1A” value turned out to be 205. The inhibition constant (Ki) on α1B adrenoceptor turned out to be 708 nM. Further, in data set [2], the “Selectivity α1A/α1B” value is 18 and the Kb is 87.1 nM.
